{
  "source": "patent US20020127714A1",
  "about": "“Inhibitors of alternative alleles of genes encoding products that mediate cell response to environmental changes” (Variagenics, Inc., a Delaware corporation, priority 1998, published 2002)",
  "origin": "cited, not measured here",
  "key": {"[1]": {"system": "serum asparagine", "details": "within hours of injection"}, "[2]": {"target": "T1, MGMT 160 arginine allele (Homo sapiens, UniProt P16455, G160R)", "T1 sequence (P16455 1-207 G160R)": "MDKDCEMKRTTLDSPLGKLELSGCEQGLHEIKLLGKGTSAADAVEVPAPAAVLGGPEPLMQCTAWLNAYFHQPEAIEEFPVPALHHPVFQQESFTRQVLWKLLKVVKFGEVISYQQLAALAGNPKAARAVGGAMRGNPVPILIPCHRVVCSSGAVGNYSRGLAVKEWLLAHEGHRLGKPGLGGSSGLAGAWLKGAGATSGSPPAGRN", "details": "160arg versus 160gly form of MGMT; also seen as reduced production of guanine from O6-benzyl[8-3H]guanine"}},
  "note": "Where two headings read alike, the source gives them in different places.",
  "data": [
    {"molecule": "L-asparaginase", "values": [
      {"measurement": "blood levels of asparagine", "setting": "[1]", "result": "undetectable levels"}
    ]},
    {"molecule": "Nc1nc(OCc2ccccc2)c2nc[nH]c2n1", "note": "[O6 benzylguanine, O6-benzylguanine]", "values": [
      {"measurement": "resistance of the 160 arginine allele to inactivation, measured as an increase in the ED50", "setting": "[2]", "result": "at least 20 fold"}
    ]},
    {"molecule": "O=c1[nH]cc(F)c(=O)[nH]1", "note": "[5-FU, 5-fluorouracil]", "values": [
      {"measurement": "half life of 5-FU", "setting": "normals", "result": "0.13 to 0.333", "unit": "h"},
      {"measurement": "half life of 5-FU", "setting": "patients homozygous for mutant DPD alleles (DPD deficiency)", "result": "> 2.5", "unit": "h"}
    ]}
  ]
}
